Data: BindingDB's records for doi:10.1021/jm200999f (Corning, 2011)

Biological target: G-protein coupled receptor 35 (Homo sapiens, UniProt Q9HC97)
Test: Antagonist activity at GPR35 in human HT-29 cells assessed as inhibition of zaprinast-induced DMR by dynamic mass redistribution assay

Sequence of G-protein coupled receptor 35 (Q9HC97 whole entry): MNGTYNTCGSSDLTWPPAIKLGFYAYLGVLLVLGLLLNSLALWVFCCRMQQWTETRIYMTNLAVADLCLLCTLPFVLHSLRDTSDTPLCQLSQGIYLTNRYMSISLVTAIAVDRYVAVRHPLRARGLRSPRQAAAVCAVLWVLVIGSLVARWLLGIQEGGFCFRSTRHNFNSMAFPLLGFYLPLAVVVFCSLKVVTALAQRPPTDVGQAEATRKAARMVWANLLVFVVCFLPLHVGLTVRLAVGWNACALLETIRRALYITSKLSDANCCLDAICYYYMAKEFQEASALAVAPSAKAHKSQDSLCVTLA

Compound: CCCOc1ccccc1-c1nc2nn[nH]c2c(=O)[nH]1 [5-(2-propoxyphenyl)-2H,3H,7H-[1,2,3]triazolo[4,5-d]pyrimidin-7-one]
- IC50: 10.5 µM
